The values below come from publication PMC6117704, “Novel Natural Angiotensin Converting Enzyme (ACE)-Inhibitory Peptides Derived from Sea Cucumber-Modified Hydrolysates by Adding Exogenous Proline and a Study of Their Structure–Activity Relationship” (Marine Drugs, 2018).

Assay [1] addresses T1, rabbit-lung ACE (Oryctolagus cuniculus, UniProt P12822).
T1 construct: rabbit-lung ACE and Sephadex G-15 were purchased from Sigma Chemical Ltd; purchased Sigma Chemical Ltd (St. Louis, MO, USA); host or cells: rabbit lung tissue
T1 sequence (P12822 34-1310): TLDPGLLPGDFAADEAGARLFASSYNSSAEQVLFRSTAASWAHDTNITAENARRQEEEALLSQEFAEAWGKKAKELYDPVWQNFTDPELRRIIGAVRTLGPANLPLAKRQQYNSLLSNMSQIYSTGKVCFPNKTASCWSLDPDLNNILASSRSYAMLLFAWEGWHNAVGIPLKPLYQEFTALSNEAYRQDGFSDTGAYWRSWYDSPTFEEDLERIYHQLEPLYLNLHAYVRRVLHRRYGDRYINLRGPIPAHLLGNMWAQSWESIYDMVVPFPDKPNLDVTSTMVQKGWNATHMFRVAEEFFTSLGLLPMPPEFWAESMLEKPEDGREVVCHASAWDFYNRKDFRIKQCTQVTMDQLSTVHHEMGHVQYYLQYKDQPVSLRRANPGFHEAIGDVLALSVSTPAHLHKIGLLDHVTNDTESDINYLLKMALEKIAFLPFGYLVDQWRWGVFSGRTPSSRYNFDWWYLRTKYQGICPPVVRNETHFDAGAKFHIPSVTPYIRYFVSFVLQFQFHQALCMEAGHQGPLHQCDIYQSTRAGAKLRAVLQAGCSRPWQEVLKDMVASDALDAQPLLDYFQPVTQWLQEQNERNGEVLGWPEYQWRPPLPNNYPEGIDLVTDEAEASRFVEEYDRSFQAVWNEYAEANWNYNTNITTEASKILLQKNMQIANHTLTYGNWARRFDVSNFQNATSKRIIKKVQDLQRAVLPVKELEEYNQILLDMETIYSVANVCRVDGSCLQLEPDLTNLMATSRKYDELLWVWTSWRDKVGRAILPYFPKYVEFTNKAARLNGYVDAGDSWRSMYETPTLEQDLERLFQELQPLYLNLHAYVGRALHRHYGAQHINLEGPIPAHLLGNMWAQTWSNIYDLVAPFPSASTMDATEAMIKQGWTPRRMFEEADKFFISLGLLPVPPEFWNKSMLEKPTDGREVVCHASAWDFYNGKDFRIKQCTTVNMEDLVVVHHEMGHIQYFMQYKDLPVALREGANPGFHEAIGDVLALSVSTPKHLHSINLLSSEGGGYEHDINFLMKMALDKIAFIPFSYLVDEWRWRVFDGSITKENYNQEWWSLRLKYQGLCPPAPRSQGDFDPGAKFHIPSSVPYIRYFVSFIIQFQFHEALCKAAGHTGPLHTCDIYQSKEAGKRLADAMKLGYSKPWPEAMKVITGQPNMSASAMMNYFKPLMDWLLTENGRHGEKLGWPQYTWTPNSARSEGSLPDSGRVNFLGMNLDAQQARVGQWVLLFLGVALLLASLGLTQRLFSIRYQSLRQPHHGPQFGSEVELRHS
The experiment in a line: ACE-inhibitory activity of synthetic peptides. The format is biochemical. Particulars: synthesized peptides; HHL substrate (8.3 mM Hip-His-Leu in 50 mM sodium borate, 0.5 M NaCl, pH 8.3), ACE 25 mU/mL, pre-incubation 37 °C 10 min, 60 min, UV 228 nm; mean ± SD (n = 3). The method, then:
Sea cucumber (Acaudina molpadioidea) was purchased from a local market (Qingdao, China) and its water content was determined to be 12.65% per 20 g on average. Hippuryl histidyl leucine (HHL), rabbit-lung ACE and Sephadex G-15 were purchased from Sigma Chemical Ltd (St. Louis, MO, USA). Papain (from papaya) and trypsin (from bovine sources) were purchased from Nanning Pangbo Biological Engineering Ltd (Nanning, China). O-Pthaldialdehyde (OPA) was purchased from Beijing Soularbio Technology Ltd. (Beijing, China). Proline (PubChem CID 145742), valine (PubChem CID 6287), tyrosine (PubChem CID 6057), tryptophan (PubChem CID 6305), leucine (PubChem CID 6106) and phenylalanine (PubChem CID 6140) were purchased from Sinopharm Chemical Reagent Ltd. (Shanghai, China). All other chemicals were obtained from local commercial sources and were of the highest purity available.
The ACE-inhibitory activity of the hydrolysates was measured according to a previously reported protocol with slight modifications. Briefly, a sample solution with 40 μL of ACE solution (25 mU/mL) was pre-incubated at 37 °C for 10 min. After this, the mixture was incubated with 50 μL of the substrate (8.3 mM Hip-His-Leu in 50 mM sodium borate buffer containing 0.5 M NaCl at pH of 8.3) for 60 min at the same temperature. The reaction was terminated by the addition of 1.0 M HCl (200 μL). The absorbance of hippuric acid in the incubated solution was determined at 228 nm using a UV-spectrophotometer (UV-2550, Shimadzu, Kyoto, Japan). The IC50 value was defined as the concentration of inhibitor that was needed to inhibit 50% of the ACE activity.
The molecular weights of peptides in the filtered hydrolysates were analyzed by MALDI-TOF (TOF 4800, Micromass Company, Manchester, UK). The amino acid sequences were determined in the positive ion mode by de novo sequencing. Subsequently, the peptides were synthesized using the solid phase method and purified by HPLC (ChinaPeptides Co. Ltd., Shanghai, China).

In assay [2] the test system is ACE. Set-up: method as in 8 sources, ref [4]; PMID 29426427; doi:10.1016/j.foodchem.2018.01.047; 4. Sangsawad P. Roytrakul S. Choowongkomon K. Kitts D.D. Chen X.M. Meng G. Lichan E. Yongsawatdigul J. Transepithelial transport across Caco-2 cell monolayers of angiotensin converting enzyme (ACE) in ||| ref [20] = [20]; PMID 29426427; doi:10.1016/j.jff.2016.12.005; 20. Sangsawad P. Roytrakul S. Yongsawatdigul J. Angiotensin converting enzyme (ACE) inhibitory peptides derived from the simulated in vitro gastrointestinal digestion of cooked chicken breast J. Funct ||| ref [21] = [21]; doi:10.1016/j.idairyj.2006.05.011; 21. Otte J. Shalaby S.M. Zakora M. Pripp A.H. El-Shabrawy S.A. Angiotensin-converting enzyme inhibitory activity of milk protein hydrolysates: Effect of substrate, enzyme and time of hydrolysis Int. D ||| ref [11] = [11]; doi:10.1080/10942912.2011.642048; 11. Sun H. Li T.J. Zhao X.H. ACE inhibition and enzymatic resistance in vitro of a casein hydrolysate subjected to plastein reaction in the presence of extrinsic proline and ethanol- or methanol-eater ||| ref [26] = [26]; PMID 24054237; doi:10.1016/j.foodchem.2013.07.067; 26. Ngo D.H. Ryu B. Kim S.K. Active peptides from skate ( Okamejei kenojei ) skin gelatin diminish angiotensin-I converting enzyme activity and intracellular free radical-mediated oxidation Food Chem. ||| ... Conditions: cited from earlier work.

Like-named read-outs stand apart in the source and are kept apart here. Peptide text beside a SMILES is read from it.

For orientation: IC50 means the concentration needed to halve the response being measured. Molecule `CC(C)C[C@H](NC(=O)[C@@H](N)CC(N)=O)C(=O)NCC(=O)O` [NLG] (H-Asn-Leu-Gly-OH) came in with an IC50 in assay [1] of 17.4 ± 0.89 µM.

In the case of `CC(C)[C@H](NC(=O)[C@@H](N)CC(N)=O)C(=O)N[C@@H](C)C(=O)O` [NVA] (H-Asn-Val-Ala-OH), inhibition in assay [1] was half-maximal at 12.7 ± 1.5 µM (IC50).

For `CC(C)C[C@H](NC(=O)[C@H](CC(N)=O)NC(=O)[C@@H]1CCCN1)C(=O)NCC(=O)O` [PNLG] (H-PNLG-OH), the concentration for half-maximal inhibition (IC50) in assay [1] stood at 13.2 ± 0.39 µM.

As to `CC(C)[C@H](NC(=O)[C@H](CC(N)=O)NC(=O)[C@@H]1CCCN1)C(=O)N[C@@H](C)C(=O)O` [PNVA] (H-PNVA-OH), the 50% inhibitory concentration (IC50) in assay [1] came to 8.18 ± 0.24 µM.

On to AGPPGSDGQPGAK, for which the IC50 in assay [2] (ref [38]) was 420 ± 20 µM.

As for KPLL, the “ACE-inhibitory activity (in words)” value in assay [2] (ref [20]) is recorded as “high ACE-inhibitory activity”.

Consider LGPLGHQ, for which the “ACE-inhibitory activity (in words)” value in assay [2] (ref [26]) is on record as “high ACE-inhibitory activity”.

Take MVGSAPGVL: in assay [2] (ref [26]), the “ACE-inhibitory activity (in words)” value is given as “high ACE-inhibitory activity”.

VYPFPGPIPNSLPQNIPP: in assay [2] (ref [21]), the “ACE-inhibitory activity (in words)” value is “high ACE-inhibitory activity”.
